US9120749B2, “Quinoline derivatives and MELK inhibitors containing the same” (ONCOTHERAPY SCIENCE, INC., priority 2010, dated 2015)
Counter-ions that a name gives are not always drawn. Like-named read-outs stand apart in the source and are kept apart here.

How the values were obtained:
A549 cells = test: Cell-based assay: anti-proliferative activity, Cell Counting Kit-8, 72 hours (A549); settings: 72 hours
How it was run: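 A549 cells were seeded in 96-well plates and exposed to candidate inhibitors for 72 hours. Cell growth was then measured with Cell Counting Kit-8, and IC50 values were calculated from the resulting growth data.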

DU4475 cells = test: Cell-based assay: anti-proliferative activity, Cell Counting Kit-8, 72 hours (DU4475)
T47D cells = test: Cell-based assay: anti-proliferative activity, Cell Counting Kit-8, 72 hours (T47D)
How it was run: (§1)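 Cellular growth is read by CCK-8 colorimetric kit 72 h after inhibitor addition to seeded cells, and IC50 values are derived from the resulting data; MELK protein levels in these lines are checked beforehand by immunoblotting whole crude lysate.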

MELK = MELK (Homo sapiens, UniProt Q14680); test: Kinase assay: MELK activity, phosphorylation of FITC-labeled histone H3 peptide measured by IMAP fluorescence polarization; type: biochemical; settings: read-out: IC50 (μM) (kinase assay)
How it was run: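 FP readout: FITC-histone H3 peptide phosphorylation, read 0.5 h (RT) after stopping with 3x volume of IMAP progressive binding solution. Final DMSO 1%.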

HT-1197 cells = test: Cell-based assay: anti-proliferative activity, Cell Counting Kit-8, 72 hours (HT-1197, negative control without MELK expression); settings: HT1197 cells (negative control), 72 hours
How it was run: as §1

Chain of MELK (Q14680 whole entry, looked up): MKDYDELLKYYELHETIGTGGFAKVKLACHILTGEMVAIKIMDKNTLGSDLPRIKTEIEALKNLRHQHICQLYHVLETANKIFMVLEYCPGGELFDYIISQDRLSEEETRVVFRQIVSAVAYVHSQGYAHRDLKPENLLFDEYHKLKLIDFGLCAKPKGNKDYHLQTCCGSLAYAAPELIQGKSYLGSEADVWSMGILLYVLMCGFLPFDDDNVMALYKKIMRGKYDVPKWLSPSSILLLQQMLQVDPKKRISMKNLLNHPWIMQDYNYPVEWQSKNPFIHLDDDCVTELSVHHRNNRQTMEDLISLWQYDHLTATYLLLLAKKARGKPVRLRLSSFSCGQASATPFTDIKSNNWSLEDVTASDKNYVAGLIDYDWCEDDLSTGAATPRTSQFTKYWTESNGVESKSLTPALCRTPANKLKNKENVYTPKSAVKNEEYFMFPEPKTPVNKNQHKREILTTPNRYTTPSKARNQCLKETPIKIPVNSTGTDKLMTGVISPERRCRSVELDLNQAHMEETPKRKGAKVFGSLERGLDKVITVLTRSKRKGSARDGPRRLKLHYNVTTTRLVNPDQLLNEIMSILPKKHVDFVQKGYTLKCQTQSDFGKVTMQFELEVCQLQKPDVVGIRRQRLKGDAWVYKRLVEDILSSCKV

Compound | IC50 (A549 cells; Homo sapiens, A549, 72 h) [µM] | IC50 (DU4475 cells; Homo sapiens, DU-4475, 72 h) [µM] | IC50 (T47D cells; Homo sapiens, T47D, 72 h) [µM] | IC50 (MELK) [µM] | IC50 (HT-1197 cells; Homo sapiens, HT1197, 72 h) [µM] | IC50 (A549 cells; hydrochloride) [µM] | IC50 (DU4475 cells; hydrochloride) [µM] | IC50 (T47D cells; 72 hours, hydrochloride) [µM] | IC50 (MELK; hydrochloride) [µM] | IC50 (HT-1197 cells; hydrochloride) [µM]
CCCC(=O)c1cnc2ccc(-c3cc(F)c(O)c(Cl)c3)cc2c1Nc1ccc(CN(C)C)cc1 [Example 537, 1-(6-(3-chloro-5-fluoro-4-hydroxyphenyl)-4-((4-((dimethylamino)methyl)phenyl)amino)quinolin-3-yl)butan-1-one] | 0.15 | 0.098 | 0.11 | 0.016 | 0.94 | – | – | – | – | –
CCCC(=O)c1cnc2ccc(-c3cc(Cl)c(O)c(OC)c3)cc2c1Nc1ccc(CN(C)C)cc1 [Example 538, 1-(6-(3-chloro-4-hydroxy-5-methoxyphenyl)-4-(4-((dimethylamino)methyl)phenylamino)quinolin-3-yl)butan-1-one] | 0.45 | 0.27 | 0.28 | 0.02 | 3.1 | – | – | – | – | –
CCCC(=O)c1cnc2ccc(-c3cnc(C#N)nc3)cc2c1Nc1ccc(CN(C)C)cc1 [Example 539, 5-(3-butyryl-4-(4-((dimethylamino)methyl)phenylamino)quinolin-6-yl)pyrimidine-2-carbonitrile] | 1.6 | 1.5 | 0.37 | 0.0038 | 1.6 | – | – | – | – | –
COc1cc(-c2cc3c(Nc4ccc(CN(C)C)cc4)c(C(=O)C4CC4)cnc3cc2F)cc(Cl)c1O [Example 540, (6-(3-chloro-4-hydroxy-5-methoxyphenyl)-4-(4-((dimethylamino)methyl)phenylamino)-7-fluoroquinolin-3-yl)(cyclopropyl)methanone] | 0.25 | 0.35 | 0.89 | 0.064 | 3.7 | – | – | – | – | –
CN(C)Cc1ccc(Nc2c(C(=O)C3CC3)cnc3cc(F)c(-c4cc(F)c(O)c(Cl)c4)cc23)cc1 [Example 541, (6-(3-Chloro-5-fluoro-4-hydroxyphenyl)-4-(4-((dimethylamino)methyl)phenylamino)-7-fluoroquinolin-3-yl)(cyclopropyl)methanone] | 0.076 | 0.087 | 0.42 | 0.077 | 1.1 | – | – | – | – | –
CN[C@H]1CC[C@H](Nc2c(C(C)=O)cnc3ccc(-c4cc(Cl)c(O)c(OC)c4)cc23)CC1 [Example 542] | 0.1 | 0.069 | 0.078 | 0.0043 | 1.7 | – | – | – | – | –
COc1cc(-c2ccc3ncc(C(C)=O)c(Nc4ccc(C(N)=O)cc4)c3c2)cc(Cl)c1O [Example 544, 4-(3-acetyl-6-(3-chloro-4-hydroxy-5-methoxyphenyl)quinolin-4-ylamino)benzamide] | 0.47 | 0.2 | 0.17 | 0.018 | 2.2 | – | – | – | – | –
CC(=O)c1cnc2ccc(-c3cc(Cl)c(O)c(Cl)c3)cc2c1Nc1ccc(C(N)=O)cc1 [Example 545, 4-(3-acetyl-6-(3,5-dichloro-4-hydroxyphenyl)quinolin-4-ylamino)benzamide] | 3.9 | 0.56 | 0.62 | 0.019 | 16 | – | – | – | – | –
COc1cc(-c2ccc3ncc(C(=O)C4CC4)c(Nc4ccc(C(N)=O)cc4)c3c2)cc(Cl)c1O [Example 546, 4-(6-(3-chloro-4-hydroxy-5-methoxyphenyl)-3-(cyclopropanecarbonyl)quinolin-4-ylamino)benzamide] | 1 | 1 | 1.1 | 0.04 | 12 | – | – | – | – | –
CN(C)Cc1ccc(Nc2c(C(=O)C3CC3)cnc3cc(F)c(-c4cc(Cl)c(O)c(Cl)c4)cc23)cc1 [Example 547, cyclopropyl(6-(3,5-dichloro-4-hydroxyphenyl)-4-(4-((dimethylamino)methyl)phenylamino)-7-fluoroquinolin-3-yl)methanone] | 0.13 | 0.14 | 0.41 | 0.02 | 1.9 | – | – | – | – | –
NC1CCN(c2ccc(Nc3c(C(=O)C4CC4)cnc4ccc(-c5cc(Cl)c(O)c(Cl)c5)cc34)cn2)CC1 [Example 548, (4-(6-(4-aminopiperidin-1-yl)pyridin-3-ylamino)-6-(3,5-dichloro-4-hydroxyphenyl)quinolin-3-yl)(cyclopropyl)methanone] | 0.45 | 0.099 | 0.097 | 0.002 | 3.4 | – | – | – | – | –
NC1CCN(c2ccc(Nc3c(C(=O)C4CC4)cnc4ccc(-c5cc(Cl)c(O)c(Cl)c5)cc34)cn2)CC1 [Example 549, (4-(6-(4-Aminopiperidin-1-yl)pyridin-3-ylamino)-6-(3,5-dichloro-4-hydroxyphenyl)quinolin-3-1)(cyclopropyl)methanone hydrochloride] | – | – | – | – | – | 0.48 | 0.078 | 0.15 | 0.0027 | 3.2
